# Assay results: patent publication US11186541B2, “Potent inhibitors of aspartate N-acetyl-transferase for the treatment of Canavan disease” (The University of Toledo, priority 2016, dated 2021)
# Molecular target: T1, Recombinant maltose-binding protein-human aspartate N-acetyltransferase (MBP-ANAT) fusion enzyme (Homo sapiens, UniProt Q8N9F0)
# T1 construct: His tag (C); made in house; host or cells: E. coli NiCo21(DE3)
# T1 sequence (Q8N9F0 1-302): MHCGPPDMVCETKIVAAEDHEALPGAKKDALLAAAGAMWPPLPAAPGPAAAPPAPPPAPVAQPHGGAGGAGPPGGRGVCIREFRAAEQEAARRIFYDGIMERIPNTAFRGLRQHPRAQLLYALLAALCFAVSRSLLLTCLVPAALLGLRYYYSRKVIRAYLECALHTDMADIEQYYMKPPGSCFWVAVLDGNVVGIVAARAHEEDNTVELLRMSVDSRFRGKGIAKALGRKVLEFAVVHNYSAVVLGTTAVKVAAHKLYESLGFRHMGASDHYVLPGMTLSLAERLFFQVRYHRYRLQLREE
# Assay: ANAT activity, DTNB-based assay (inhibitor screening and kinetic evaluation)
# Assay type: biochemical
# Settings: not given
# From the text: ANAT is difficult to purify. […] This can be accomplished, for example, as described in U.S. Provisional Patent Application No. 62/216,700, which is incorporated herein by reference for all purposes. […] An optimized thiol detection assay can be used to kinetically characterize this newly produced enzyme form.
# Recombinant maltose-binding protein-human aspartate N-acetyltransferase (MBP-ANAT) fusion enzyme was expressed and purified as described in U.S. Provisional Patent Application No. 62/216,700. Briefly, NiCo21(DE3) competent E. coli cells (New England Biolabs, Ipswich, Mass.) were transformed with an MBP-ANAT-his construct and selected on LB plates with 30 μg/ml kanamycin. Colonies from these plates were used to inoculate starter cultures in LB media. After diluting each starter culture by 100-fold in 1 L of LB media, cell growth was continued for about 2 hours at 37° C. until A600 reached 0.6. IPTG was then added to a final concentration of 0.5 mM, and protein expression was induced at 16° C. for 20 hours. To purify MBP-ANAT, a Ni Sepharose 6 Fast Flow column (GE healthcare, Pittsburgh, Pa.) was equilibrated with Buffer A (20 mM potassium phosphate, pH 7.4, 300 mM sodium chloride, 10% glycerol, and 20 mM imidazole). Cell lysate was loaded on to the column and partially purified ANAT was then eluted with a linear gradient of Buffer B (buffer A containing 400 mM imidazole). The active fractions were pooled and loaded onto an amylose column and highly purified ANAT fusion was then obtained by elution with a 0-10 mM linear maltose gradient. ANAT activity was measured by an established DTNB-based assay using a SpectraMax 190 spectrophotometer plate reader (Molecular Devices, Calif.). A typical activity assay contained 20 mM HEPES, pH 7.4, 150 mM NaCl, 5% glycerol, 40 μM DTNB, 40 μM acetyl-CoA, and 2 mM L-aspartate in a total volume of 200 μl. Reaction was monitored at 412 nm (ε=14.15 mM^−1 cm^−1) for at least 15 minutes.
# Three different compound libraries were used for initial screening of ANAT inhibitors. These small compound libraries were assembled in-house: an amino acids library contained 96 compounds, a metabolite library contained 96 compounds, and a second amino acids library contained 64 compounds. An additional constrained analogs library contained 77 compounds that were purchased from commercial sources.
row,Compound,ANAT inhibitor potency (in words)
1,NC(=O)[C@@H](N)CC(=O)O [L-aspartic acid amide],neither alternative substrates nor inhibitors
2,O=C(O)C[C@H](NC(=O)OCc1ccccc1)C(=O)O [N-[(benzyloxy)carbonyl]-L-aspartic acid],surprisingly high potency

# Same assay, conditions: read-out: inhibition constant against ANAT
row,Compound,Ki [mM]
1,O=C1CC[C@H](C(=O)O)N1 [2-D-pyroglutamic acid],> 2
2,O=C(O)c1cc(-c2ccccc2F)no1 [3-(2-fluoro-phenyl)-isoxazole-5-carboxylic acid],> 2
3,"Cc1noc(-c2cccc(C(=O)O)c2)n1 [3-(3-methyl-1,2,4-oxadiazol-5-yl-benzoic acid]",> 2
4,O=C(O)CC[C@H](NC(=O)c1ccccc1)C(=O)O [N-benzoyl-L-glutamate],0.13
5,"O=C(O)C[C@H](NC(=O)c1ccccc1)C(=O)O [comparable L-aspartate derivative, sodium N-benzoyl-L-aspartate]",> 2
